Data taken from patent publication US10376557B2, “Peptide fragments for inducing synthesis of extracellular matrix proteins” (HELIX BIOMEDIX, INC., priority 2006, dated 2019).
Ends that are not written are not given here.

Experiments:
Assay type in all cases: cell-based
Human dermal fibroblasts = assay: SIRCOL collagen assay: soluble collagen released by dermal fibroblasts incubated with peptides; conditions: for Released collagen (μg/mL) 24 h / Released collagen (μg/mL) 48 h: peptide 50 μg/mL (per Table 5); for Average (A560 nm) / Average minus blank (A560 nm) / Collagen / Collagen (μg) / Decrease in collagen release at 48 h v. 24 h / Increase in collagen release at 48 h v. 24 h / Significant release of collagen at 24 h and 48 h: peptide 50 μg/mL; for Collagen / Collagen (μg): * = may not be significant, detection limit 2.5 μg; for Collagen produced (μg/mL) 24 hrs / Collagen produced (μg/mL) 48 hrs: [Peptide] 50 μg/mL; for Decrease in collagen release at 48 h v. 24 h / Increase in collagen release at 48 h v. 24 h / Significant release of collagen at 24 h and 48 h: check mark = yes; for Significant release of collagen at 24 h and 48 h: 25 μg/mL considered significant
Method: Several sequences identified in Examples 1 and 2 were synthesized using standard peptide chemistry and assayed for the stimulation of collagen from dermal fibroblasts. The synthesized peptides were amidated at the C-terminus, which rendered the tetrapeptides less susceptible to protease degradation and increased their solubility compared to the free acid forms. Human dermal fibroblasts were incubated in 96-well plates at 37° C. and 5% CO2 for 24 and 48 hours in 150 μL complete cell culture media (Cascade Biologics, Portland, Oreg.; Cat. No. M-106-500), supplemented with Low Serum Growth Supplement (Cascade Biologics, Portland, Oreg.; Cat. No. […] Each well was seeded with 10,000 cells. Following the incubation, 100-μL medium samples were recovered from each well and assayed for collagen production
The assays were performed by Tebu-bio Laboratories (France) using the SIRCOL™ Collagen Assay Kit (Biocolor Assays, UK) following the manufacturer's protocol. The SIRCOL™ Collagen Assay is a quantitative dye-binding method designed for the analysis of soluble collagens released into culture medium by mammalian cells during in vitro culture. The collagen of the tested samples binds to the anionic SIRCOL™ dye. The collagen-dye complexes precipitate out of solution and are pelleted by centrifugation. The recovered collagen-dye pellet was dissolved in an alkaline solution prior to absorbance measurements. Duplicate measurements were taken at the 24 and 48 hour times from two separate samples. The four measurements for each sample were averaged. The absorbance of reagent blanks, collagen standards, and samples were measured at 560 nm. The reagent blank absorbance was subtracted from the absorbance from each sample at 24 and 48 hours.
Two separate data sets were used to generate two collagen standard calibration curves. The first calibration curve was generated for purposes of calculating the quantity of collagen in samples H6 (combination of SEQ ID NOs:1-4), […] (SEQ ID NOs:1-8, respectively) and H15 (combination of SEQ ID NOs:5-8). The second calibration curve was generated for calculating the quantity of collagen in samples H16 (SEQ ID NO:9), H21-23 (SEQ ID NOs:10-12, respectively), H25-26 (SEQ ID NOs:13-14, respectively), or H29-30 (SEQ ID NOs:15-16, respectively), H32 (SEQ ID NO:17), H33 (combination of SEQ ID NOs:9-12), H34 (combination of SEQ ID NOs:11-14), H35 (combination of SEQ ID NOs:13-16), H36 (combination of SEQ ID NOs:1, 6, 5, 8), H37 (SEQ ID NO: 17) and H38 (SEQ ID NO:8) from the absorbance measurements was created by plotting the Abs560nm of the known collagen standards versus the respective concentrations of the collagen standards (in micrograms) each time a series of assays were performed. With respect to each data set, the same calibration curve was used for samples taken at the 24 and 48 hour times (Tables 2A and 2B). Accordingly, different standard curves were prepared immediately prior to performing each series of assays.
A linear regression was performed from plotting the Abs560nm values versus concentrations of the respective collagen standards using MICROSOFT EXCEL™. […] As the results were identical, only the 24-hour time period was used for the second series calibration curves. The formula of the line obtained on assay date 1 and assay date 2 of the second series of samples was y=0.0178x and y=0.0162x, respectively. The peptide LL-37 (SEQ ID NO:18) was used as a positive control as it has been widely reported to have an impact upon wound healing in man (Heilborn et al., The Cathelicidin Anti-Microbial Peptide LL-37 Is Involved In The Re-Epithelialization Of Human Skin Wounds And Is Lacking In Chronic Ulcer Epithelium, J. Invest. Dermato. 120:379-89 (2003). The assay detection limit defined by the manufacturer is 2.5 μg. […]

[1] = test system: human skin epithelial cells (CRL-2592); assay: In vitro scratch wound closure of skin epithelial cell monolayer; conditions: for W-size (wound size) 0 hr: prior to peptide treatment; for W-size (wound size) 6 hr / % closure 6 hr / W-size (wound size) 10 hr / % closure 10 hr: peptide 20 to 40 μg/ml; for % closure 6 hr: PBS controls 19.40%, 19.20%; for % closure 10 hr: PBS controls 41.70%, 42.30%; for wound closure compared to PBS alone (in words): epithelial cell monolayer
Method: Wound healing experiments were performed on monolayers of human skin epithelial cells (CRL-2592) plated onto 12-well plates. Cells were serum-starved for 24 hours before experimentation. Confluent monolayers of CRL-2592 were wounded using a P200 (200-μL) pipette tip. The wounds were washed and picture-documented prior to peptide treatment. Peptides were added to a final concentration from 20 to 40 μg/ml. Cells were kept in an incubator at 37° C., 5% CO2, and 92% humidity, except when images were being captured for a short period at room temperature. Wound closure was followed at 6-hour and 10-hour time points. PBS-treated wounds were used as negative controls for comparison purposes.

[2] = test system: human skin fibroblast monolayer; assay: Wound closure in skin fibroblast monolayer (data not shown)
From the text: In vitro monolayer wound closure is a result of cell migration, which is important in many biological processes such as embryogenesis, angiogenesis, inflammatory reactions and wound repair. These processes are thought to be regulated by interactions with other cells, cytokines and ECM proteins.

Substance	Released collagen (μg/mL) 24 h (Human dermal fibroblasts) [µg/mL]	Collagen produced (μg/mL) 24 hrs (Human dermal fibroblasts) [µg/mL]	Released collagen (μg/mL) 48 h (Human dermal fibroblasts) [µg/mL]	Collagen produced (μg/mL) 48 hrs (Human dermal fibroblasts) [µg/mL]	Decrease in collagen release at 48 h v. 24 h (Human dermal fibroblasts)	Average (A560 nm) (Human dermal fibroblasts; 24 hours, second series)	Average minus blank (A560 nm) (Human dermal fibroblasts; 24 hours, second series)	Collagen (μg) (Human dermal fibroblasts; 24 hours, second series)	Average (A560 nm) (Human dermal fibroblasts; 48 hours, second series)	Average minus blank (A560 nm) (Human dermal fibroblasts; 48 hours, second series)	Collagen (μg) (Human dermal fibroblasts; 48 hours, second series)	Increase in collagen release at 48 h v. 24 h (Human dermal fibroblasts)	Collagen (Human dermal fibroblasts; 24 hours, second series) [µg]	also measured
GEPG (Synthetic Peptide H11)	45	45	21	21	✓	–	–	–	–	–	–	–	–	Average (A560 nm) (Human dermal fibroblasts; 24 hours): 0.14; Average minus blank (A560 nm) (Human dermal fibroblasts; 24 hours): 0.06; Collagen (Human dermal fibroblasts; 24 hours, 100 μL medium sample): 4.5 µg; Average (A560 nm) (Human dermal fibroblasts; 48 hours): 0.15; Average minus blank (A560 nm) (Human dermal fibroblasts; 48 hours): 0.03; Collagen (μg) (Human dermal fibroblasts; 48 hours, 100 μL medium sample): 2.1* μg; W-size (wound size) 0 hr [1]: 48 arbitrary; W-size (wound size) 6 hr [1]: 39 arbitrary; % closure 6 hr [1]: 19%; W-size (wound size) 10 hr [1]: 30 arbitrary; % closure 10 hr [1]: 37.50%; wound closure compared to PBS alone (in words) [1]: does not enhance wound closure or epithelial cell migration to any great extent
PGNP (PGNP-NH2) [H30]	9	9	20	20	–	0.10	0.02	0.9* μg	0.09	0.03	2.0* μg	✓	–	–
PGPP (Synthetic Peptide H26)	29	29	35	35	–	0.13	0.05	–	0.12	0.06	–	–	2.9	Collagen (Human dermal fibroblasts; 48 hours, second series): 3.5 µg; Significant release of collagen at 24 h and 48 h (Human dermal fibroblasts): ✓; wound closure in fibroblast monolayer (in words) [2]: does not induce wound closure; W-size (wound size) 0 hr [1]: 25 arbitrary; W-size (wound size) 6 hr [1]: 12 arbitrary; % closure 6 hr [1]: 52%; W-size (wound size) 10 hr [1]: 2.75 arbitrary; % closure 10 hr [1]: 89%; wound closure compared to PBS alone (in words) [1]: significantly induces wound closure
PGPR (Synthetic Peptide H10)	34	34	0	0	✓	–	–	–	–	–	–	–	–	Average (A560 nm) (Human dermal fibroblasts; 24 hours): 0.12; Average minus blank (A560 nm) (Human dermal fibroblasts; 24 hours): 0.04; Collagen (Human dermal fibroblasts; 24 hours, 100 μL medium sample): 3.4 µg; Average (A560 nm) (Human dermal fibroblasts; 48 hours): 0.11; Average minus blank (A560 nm) (Human dermal fibroblasts; 48 hours): 0.00; Collagen (μg) (Human dermal fibroblasts; 48 hours, 100 μL medium sample): 0.0* μg
PGQP (PGQP-NH2) [H22]	33	33	21	21	✓	0.14	0.06	–	0.09	0.03	2.1* μg	–	3.3	–
PGTP (PGTP-NH2) [H23]	1	1	17	17	–	0.08	0.00	0.1* μg	0.09	0.03	1.7* μg	✓	–	–
PKGP (PKGP-NH2) [H21]	25	25	29	29	–	0.12	0.04	–	0.11	0.05	–	–	2.5	Collagen (Human dermal fibroblasts; 48 hours, second series): 2.9 µg; Significant release of collagen at 24 h and 48 h (Human dermal fibroblasts): ✓
PMGP (PMGP-NH2) [H25]	13	13	7	7	✓	0.10	0.02	1.3* μg	0.07	0.01	0.7* μg	–	–	–
PQGP (PQGP-NH2) [H29]	4	4	19	19	–	0.09	0.01	0.4* μg	0.09	0.03	1.9* μg	✓	–	–
